Patent US20050152959A1, “Use of a lysolipid for the preparation of a composition for transfection of a polynucleotide into a cell” (Transgene S. A., priority 2001, published 2005)

Legend:
P815 cells = assay: Intratumoral transfer of luciferase plasmid pTG11236 with HPC into P815 tumors, luciferase measurement; format: in vivo; conditions: P815 tumors in B6D2 mice; 50 μl intratumoral, 10 μg plasmid pTG11236 with 0.4 mg/ml HPC; 24 hours after last injection; compared with no HPC
Protocol: FIG. 2: show the effect of HPC on intratumoral transfer of the luciferase-plasmid (pTG11236) into P815 cells. Bars are means of RLU per minute per mg protein. Luciferase activity was measured 24 hours after the last injection of 50 μl of a composition, comprising 10 μg of plasmid and 0.4 mg/ml of HPC, into B6D2 mice. Plasmid DNA (pTG11236: CMV promoter, β-globin intron, luciferase cassette, 5739 base pairs) was prepared according to Bischoff et al., Analytical Biochemistry 254 (1997), 69-81. RENCA or P815 cells were injected under the skin of 6 to 8 week old B6D2 female mice (3 10^5 cells/animal). Eleven days after the injection of the cells, palpable tumours appear. Prior to intratumoral injection HPC was mixed with the plasmid DNA preparation Then, various quantities of plasmid and HPC were directly injected into the tumor three times (with three day-time interval between subsequent injection). Twenty four hours after injection of the composition, the mice were killed and the tumors were retrieved and frozen. Luciferase activity was quantified on whole tumor extracts using a conventional measurement kit (Luciferase Assay System, Promega). Briefly, tumors were diluted in 200 μl of reporter lysis buffer (Promega). […] Luciferase activity was expressed as number of RLU emitted per minute, per mg of protein. Protein was measured on 10 μl samples using a VCA Protein Assay kit (Pierce).

RENCA cells = assay: Intratumoral transfer of luciferase plasmid pTG11236 with HPC into RENCA tumors, luciferase measurement; format: in vivo; conditions: RENCA tumors in B6D2 mice; 50 μl intratumoral, 0.4, 2 or 10 μg plasmid pTG11236 with 2 mg/ml HPC; 24 hours after last injection; compared with no HPC
Protocol: FIG. 1: show the effect of hexadecylphosphocholine (HPC) on intratumoral transfer of the luciferase-plasmid (pTG11236) into RENCA cells. Bars are means of RLU per minute per mg protein. Luciferase activity was measured 24 hours after the last injection of 50 μl of a composition, comprising between 0.4, 2 or 10 μg of plasmid and 2 mg/ml of HPC, into B6D2 mice. Plasmid DNA (pTG11236: CMV promoter, β-globin intron, luciferase cassette, 5739 base pairs) was prepared according to Bischoff et al., Analytical Biochemistry 254 (1997), 69-81. RENCA or P815 cells were injected under the skin of 6 to 8 week old B6D2 female mice (3 10^5 cells/animal). Eleven days after the injection of the cells, palpable tumours appear. Prior to intratumoral injection HPC was mixed with the plasmid DNA preparation Then, various quantities of plasmid and HPC were directly injected into the tumor three times (with three day-time interval between subsequent injection). Twenty four hours after injection of the composition, the mice were killed and the tumors were retrieved and frozen. Luciferase activity was quantified on whole tumor extracts using a conventional measurement kit (Luciferase Assay System, Promega). […] Luciferase activity was expressed as number of RLU emitted per minute, per mg of protein. Protein was measured on 10 μl samples using a VCA Protein Assay kit (Pierce).

CCCCCCCCCCCCCCCCOP(=O)([O-])OCC[N+](C)(C)C [HPC, hexadecylphosphocholine]
Luciferase activity of the injected tumors (RLU per minute per mg protein) (P815 cells): higher
Luciferase activity of the injected tumors (RLU per minute per mg protein) (RENCA cells): higher
